“Also recorded” adds a separate entry of the source. Counter-ions that a name gives are not always drawn. Like-named read-outs stand apart in the source and are kept apart here.
Legend:
[1] = test system: Pseudomonas aeruginosa, ATCC 27853; test: Zone of inhibition, antimicrobials in AOT and Cavilon, TSA plates; assay type: cell-based; conditions: for ZOI 24 h / ZOI 48 h / ZOI 72 h: agent with AOT in Cavilon polymer, HMDS/ISO, 0.1 mL per cylinder, Neosporin 100 μL; for ZOI behaviour in words: with AOT in Cavilon polymer, over three days
Method: (§1) All microbiological testing was done by INCELL Corporation, San Antonio, Tex. All zones of inhibition data were measured in mm.
(§2) The zones of inhibition testing for methicillin-resistant Staphylococcus aureus and Pseudomonas aeruginosa were performed as described below. The bacteria were purchased from ATCC and expanded in Tryptic soy broth overnight. Each of the bacteria cultures was then spread onto Tryptic soy agar (TSA) plates. Sterile cloning cylinders containing the biologically-active agent in a volatile, hydrophobic solvent (0.1 mL per cylinder) were placed on the TSA plates and allowed to air dry for 1 h at room temperature. Neosporin was used as a positive control. The TSA plates were observed and photographed after 24 h, 48 h, and 72 h. Images were used to measure zone of inhibition or areas of clearing surrounding the delivered material.
(§3) The polymer substrate chosen for the sustained release studies of biologically-active antimicrobial over time was Cavilon. The Cavilon solution is composed of a proprietary acrylate polymer and a smaller amount of polyphenylmethylsiloxane in HMDS and ISO. This was used as a negative control for all zone of inhibition studies (Tables 8-10).

[2] = test system: methicillin-resistant Staphylococcus aureus, ATCC 700787; test: as above; assay type: cell-based
Method: as §1, §2, §3

[3] = in water; cited from earlier work
[4] = Solubility in non-polar hydrophobic solvents ISO and HMDS; assay type: physicochemical; conditions: without reverse emulsion surfactant
Text: For all formulations in the following Examples, each biologically-active agent was inherently insoluble in the non-polar, hydrophobic solvents tested, namely, isooctane (ISO) and hexamethyldisiloxane (HMDS). Solubility occurred in the presence of a reverse emulsion surfactant, with or without the presence of added water, to give optically clear, homogeneous solutions. Since the concentrations of the biologically-active agents (Active) were considerably less than that of the solvent used, the data in the Tables pertaining to all ingredients were rounded-off to the next highest number.

[5] = test system: Gram negative bacteria such as Pseudomonas aeruginosa; conditions: reported, G. N. Kern; cited from earlier work
[6] = test system: L929 mouse fibroblast cell; test: Cytotoxicity testing, agar overlay with neutral red; conditions: for Zone Size / Grade (biological reactivity): 0.05 wt % AOT in Cavilon; for Zone Size: applied to agar surface; for Grade (biological reactivity): scale Grade 0 to Grade 4
Method: Also of consideration for application to animal and human skin is the potential of toxicity to mammalian cells for reverse emulsion surfactants such as AOT. […] […] Cavilon solution without AOT was used as a negative control.
The biological reactivity of L929 mouse fibroblast cell in response to the AOT Cavilon solution was determined. The monolayer of fibroblasts was cultured in an agar plate, and the cell viability was evaluated using a vital dye (neutral red). The AOT Cavilon solution was applied directly to the surface of the agar. Positive (Buna-N-Rubber) and negative (Negative Control Plastic, Cavilon solution) control articles were prepared to verify the proper functioning of the test system. The cultures were incubated at 37±1° C., in a humidified atmosphere containing 5±1% carbon dioxide. Zone of inhibition was measured, and biological reactivity (cellular degeneration and malformation) was rated on a scale from Grade 0 (No reactivity) to Grade 4 (Severe reactivity) at 24 and 48 hours. The experiment was run in triplicate.

albino rabbits = test: Animal skin-irritation study, Draize scoring; assay type: in vivo, rabbit; conditions: Cavilon solution containing 0.5 wt % AOT
Method: Another concern with the use of a reverse emulsion surfactant for its application to mammalian skin is its potential to cause skin irritation. It has been reported that in water solution AOT can be irritating to skin (M. Changez and M. Varshney, Drug Development and Industrial Pharmacy, 26(5), 507-512 (2000)). To test if AOT is skin-irritating when used in a volatile, hydrophobic solvent with the presence of polymer, an animal skin-irritation study was conducted by Toxikon Corporation, Cavilon solution containing 0.5 wt % AOT was examined, and Cavilon solution was used as a negative control.
Three albino rabbits were used for the skin irritation study. The application sites were prepared by clipping the skin of the trunk free of hair within 24 h before application of the test and control substances. The animals were treated by applying an AOT-containing Cavilon solution and the Cavilon negative control (0.5 mL) directly onto skin over a skin area of approximate 6 cm^2. The test solution was applied to the skin on the left side of the spine and the control solution was applied to the skin on the right side of the spine. The AOT solution and the negative control were each applied sequentially to three sites, and observed at 6, 24, 48, and 72 h for signs of erythema and edema. Observations were scored according to the Draize Scale for Scoring. […]

[7] = test system: Gram positive bacteria such as Staphylococcus aureus; conditions: reported, G. N. Kern; cited from earlier work
[8] = test system: mammalian cells such as fibroblasts, kidney cells, and cancer cells; conditions: in water solution; cited from earlier work
[9] = test system: Candida albicans, ATCC 10231; test: Zone of inhibition, antimicrobials in AOT and Cavilon, TSA plates; assay type: cell-based; conditions: for ZOI 24 h / ZOI 48 h / ZOI 72 h: agent with AOT in Cavilon polymer, HMDS/ISO, 0.1 mL per cylinder, Roccal 1 %
Method: as §1
The zones of inhibition testing was also performed with Candida albicans, purchased from ATCC and expanded in Tryptic soy broth overnight. This fungi culture was diluted to 0.1 OD 600 units and spread onto TSA plates. Sterile cloning cylinders were placed on the TSA plates, charged with the biologically-active agent in a volatile, hydrophobic solvent (0.1 mL per cylinder) and allowed to air dry for 1 h at room temperature. A 1% Roccal solution was used as a positive control. The TSA plates were observed and photographed after 24 h, 48 h, and 72 h. Images were used to measure zone of inhibition or areas of clearing surrounding the delivered material.
as §3

Candida albicans = conditions: reported, G. N. Kern; cited from earlier work
[10] = in water solution; cited from earlier work
[11] = 24 h, agent with AOT in Cavilon polymer, HMDS/ISO, 0.1 mL per cylinder, Neosporin 100 μL
[12] = 48 h, agent with AOT in Cavilon polymer, HMDS/ISO, 0.1 mL per cylinder, Neosporin 100 μL
[13] = 72 h, agent with AOT in Cavilon polymer, HMDS/ISO, 0.1 mL per cylinder, Neosporin 100 μL
[14] = with AOT in Cavilon polymer, over three days

NC[C@@H]1O[C@H](O[C@@H]2[C@@H](CO)OC(O[C@@H]3[C@@H](O)[C@H](N)C[C@H](N)[C@H]3OC3O[C@H](CN)[C@@H](O)[C@H](O)[C@H]3N)[C@@H]2O)[C@H](N)[C@@H](O)[C@@H]1O (stereo partly shown) [NEO, Neomycin Trisulfate]
ZOI 24 h [1]: 7.43 mm
ZOI 48 h [1]: 6.41 mm
ZOI 72 h [1]: 7.61 mm
ZOI 24 h [2, 11]: 8.95 mm
ZOI 48 h [2, 12]: 8.94 mm
ZOI 72 h [2, 13]: 9.71 mm
ZOI behaviour in words [2, 14]: highly effective

N=C(NCCCCCCNC(=N)NC(=N)Nc1ccc(Cl)cc1)NC(=N)Nc1ccc(Cl)cc1.O=C(O)[C@H](O)[C@@H](O)[C@H](O)[C@H](O)CO.O=C(O)[C@H](O)[C@@H](O)[C@H](O)[C@H](O)CO [CHG, Chlorhexidine Digluconate]
water solubility [3]: 20%
ZOI 24 h [1]: 2.77 mm
ZOI 48 h [1]: 0 mm
ZOI 72 h [1]: 0 mm
ZOI behaviour in words [1]: less effective
ZOI 24 h [2, 11]: 11.53 mm
ZOI 48 h [2, 12]: 11.03 mm
ZOI 72 h [2, 13]: 11.67 mm
ZOI behaviour in words [2, 14]: exceptional results

CCCCCCCCCCCC(=O)[O-].[Na+] [SL, sodium dodecanoate]
solubility in isooctane (ISO) and hexamethyldisiloxane (HMDS) [4]: insoluble

CCCCC(CC)COC(=O)CC(C(=O)OCC(CC)CCCC)S(=O)(=O)[O-].[Na+] (stereo not shown) [AOT, sodium bis(2-ethylhexyl)sulfosuccinate]
antibacterial activity, in words [5]: inactive
Zone Size ([6]; 24 hours): 0 cm
Grade (biological reactivity) ([6]; 24 hours): 0
Zone Size ([6]; 48 hours): 0 cm
Grade (biological reactivity) ([6]; 48 hours): 0
toxicity to mammalian cells, in words ([6]; AOT Cavilon solution, 0.5 wt % AOT): not toxic
signs of erythema or edema (albino rabbits; 0.5 mL on skin, observed at 6, 24, 48, and 72 h): None of the AOT solution sites presented any signs of erythema or edema
skin irritation classification (albino rabbits; Draize Scale): non-irritant
antibacterial activity, in words [7]: active
ZOI 24 h [1]: 8.18 mm
ZOI 48 h [1]: 8.22 mm
ZOI 72 h [1]: 11.2 mm
ZOI behaviour in words [1]: considerably more effective against Pseudomonas aeruginosa than Neosporin; also recorded: highly effective
ZOI 24 h [2]: 5.34 mm
ZOI 48 h [2]: 6.3 mm
ZOI 72 h [2]: 5.32 mm
ZOI behaviour in words [2]: active
cytotoxic concentration [8]: 0.002 wt %
ZOI 24 h [9]: 12.7 mm
ZOI 48 h [9]: 12.4 mm
ZOI 72 h [9]: 13.3 mm
antifungal activity, in words (Candida albicans): effective
skin irritation, in words [10]: irritating

O=[N+]([O-])[O-].[Ag+] [AgNO3, Silver Nitrate]
ZOI 24 h [2, 11]: 8.16 mm
ZOI 48 h [2, 12]: 9 mm
ZOI 72 h [2, 13]: 8.18 mm
ZOI behaviour in words [2, 14]: highly effective

Clc1ccc(COC(Cn2ccnc2)c2ccc(Cl)cc2Cl)c(Cl)c1 (stereo not shown) [MICON, Miconazole Nitrate]
ZOI 24 h [9]: 16.5 mm
ZOI 48 h [9]: 14.9 mm
ZOI 72 h [9]: 15 mm
ZOI behaviour in words [9, 14]: superior to that of AOT by itself and PHMB with AOT

CCCCC(CC)CNC(=N)NC(=N)NCCCCCCNC(=N)NC(=N)NCC(CC)CCCC (stereo not shown) [ALEX, 1,1′-hexamethylenebis[5-(2-ethylhexyl)biguanide]dihydrochloride]
water solubility [3]: 0.1%
